Laboratory results taken from a melting point compilation (Tetko et al.; mined from patent text by program, amines drawn as free bases though some values may be those of a salt).

SMILES	melting point
COc1ccc(-n2nc(O)c3c(=O)c4ccc(Cl)cc4[nH]c3c2=O)cc1Cl	395 to 396 °C
N#CCc1c[nH]c2ccc(NC(N)=S)cc12	212 to 214 °C
C=CCn1c(=O)c(OC)nn(-c2cccc(NC(C)=O)c2)c1=O	72 to 73 °C
COc1ccc(C(=O)Nc2ccc3cccnc3n2)cc1	150 °C
CN(C)C(=O)CN1CCc2ccc([N+](=O)[O-])cc2CC1	94 to 96 °C
C[C@@H](N(CC(=O)O)C(=O)c1ccc(OCC(F)(F)C(F)F)cc1)[C@](O)(Cn1cncn1)c1ccc(Cl)cc1Cl (relative stereo)	192 to 193 °C
Nc1cc(C(=O)NNC(=O)c2occ(-c3ccccc3)c2-c2ccccc2)ccc1O	268 to 270 °C
CCOC(=O)C1=C(C(F)(F)F)Nc2n[nH]cc2C1c1cccs1 (centres undefined)	157 to 161 °C
CCOC(=O)c1cnc(N)nc1O	280 °C
O=C(NC(=O)c1cc(F)c(F)cc1Cl)Nc1cccnc1N1CCC(C(=O)NCCO)CC1	203 °C
Cc1cc2c(c(C)c1O)C(C)CN2C(=O)C(C)(C)C (centres undefined)	144 to 145 °C
CC(C)(c1ccccc1)n1nnc(-c2ccccc2-c2ccc(CBr)cc2)n1	108 to 109 °C
CCOC(=O)c1cccc(N(CC(=O)OC(C)(C)C)C(=O)CNC(=O)Nc2cccc(C)c2)c1	71 °C
O=C(O)c1ccc(-c2ccc3cc(OCc4ccc(F)cc4)c(C45CC6CC(CC(C6)C4)C5)cc3c2)cc1O	240 to 241 °C
CC(C)(C)OC(=O)NC(CF)CC(=O)O (centres undefined)	112 °C
O=c1[nH]cc(Oc2ccccc2)cc1-c1csc(-c2ccncc2)n1	243 to 245 °C
CC(C)NC(=O)Nc1ccc(-c2ccnc3c(C(=O)c4cccs4)cnn23)s1	162 to 165 °C
N=c1[nH]c2ccc(Cl)cc2c2nc(C3CCCO3)nn12 (centres undefined)	203 to 206 °C
Cc1cc(C2(C(F)(F)F)CC(c3ccc(F)cc3)=NO2)ccc1NC(=O)OC(C)(C)C (centres undefined)	149 to 150 °C
CCCn1ccc(=O)c(OC(=O)NCC(=O)OCC)c1C	96 to 97 °C
CC1=C(C(=O)OCCO)C(c2ccccc2OCc2ccccc2)C([N+](=O)[O-])=C(C)N1 (centres undefined)	183 to 185 °C
C[C@H]1CN(Cc2ccccc2)C[C@H]1NC(=O)OC(C)(C)C (relative stereo)	132 to 133 °C
C/C(N)=C/C(=O)OCCOC/C(C)=C/c1ccc(Cc2cccnc2)cc1	67 to 70 °C
O=Cc1ccc(-c2cccc(-c3ccc(OC(F)(F)F)cc3)n2)cc1	109 to 112 °C
CCCCCCCCCCCCCCCCCCC(N=C(c1ccccc1)c1ccccc1)C(=O)OCC (centres undefined)	62 to 65 °C

SMILES	melting point
c1cc(-c2ccncc2)c2sccc2c1	71 to 72 °C
COc1cc(C)cc(OC)c1N(CC1CCCCC1)C(=O)CNC(=O)c1cc2ccccc2n1CCC(=O)NC1C2CC3CC(C2)CC1C3 (centres undefined)	96 °C
O=C(Nc1cccc(-c2ccnc3c(C(=O)c4cccs4)cnn23)c1)OCc1ccccn1	121 to 125 °C
COc1ccc2c(O)cccc2c1	73 to 75 °C
O=C(O)c1ccc(NCCOc2ccc3ccccc3c2)cc1	208 to 211 °C
Cc1ccc(S(=O)(=O)OCCCCn2c3c(c4ccccc4c2=O)C(=O)c2ccccc2-3)cc1	160 to 163 °C
O=C1CCC(N2C(=O)c3cccc(NC(=O)Cc4ccccc4)c3C2=O)C(=O)N1 (centres undefined)	217 to 218 °C
COC(=O)c1nc(OC(C)=O)cc2c1[nH]c1ccccc12	151 to 152 °C
O=C(Nc1cn2cc(-n3ccnc3)ccc2n1)c1ccc(-c2ccoc2)cc1	261 to 263 °C
Cc1c(N)cccc1-c1ccnc(Nc2ccc(C(=O)N3CCOCC3)cc2)n1	183 to 184 °C
CCCCc1nc(Cl)c(CC(=O)OC)n1Cc1ccc(NS(=O)(=O)C(F)(F)F)cc1	154 to 157 °C
O=C1c2ccc(SCc3ccccc3)cc2CC1Br (centres undefined)	88 °C
CCCOc1cc2ccccc2c2c(=O)c(-c3ccc(OC)cc3)c[nH]c12	172 to 174 °C
CC1(C)CN2C(=O)c3ccccc3C(O)(c3ccc(F)cc3)C2=N1 (centres undefined)	168 to 170 °C
O=C1CCC(N2Cc3c(CNC(=O)Nc4ccc(Cl)c(Cl)c4)cccc3C2=O)C(=O)N1 (centres undefined)	253 to 255 °C
CCCCc1cc(Cn2cnc3c(N)nc4ccccc4c32)no1	201 to 203 °C
CCC12CCC3C4CCC(=O)C=C4CC(C)C3C1CCC2O (centres undefined)	152 to 154 °C
CCOc1c(C)c(N2CCN(c3ccc(OC)cc3)CC2)c(C)c2c1OC(C)(C)C2=O	109 to 112 °C
Cc1cc(C2=NOC(c3cc(Cl)cc(Cl)c3)(C(F)(F)F)C2)ccc1S(=O)(=O)NCc1ccccn1 (centres undefined)	57 to 58 °C
CC(C)(CO)NS(=O)(=O)c1cccc(NC(=O)c2cnn3c(C(F)F)cc(-c4ccc(C(F)(F)F)cc4)nc23)c1	232 °C
COc1ccc(C(=O)C(C)(C)Br)c(Cl)c1Cl	72 to 73 °C
COc1cc2c(cc1C=O)C(C)(C)CO2	75 to 76 °C
Cc1cc(F)ccc1Nc1nc(N2CCc3ccccc3C2C)c2cccc(OCCO)c2n1 (centres undefined)	120 to 122 °C
CN1CCSC1=NC(=S)Nc1ccccc1	169 to 170 °C
O=Cc1ccc2nccc(Oc3ccccc3)c2c1	112 to 115 °C

SMILES	melting point
CC(=O)O[C@@H]1C(=O)N[C@@H]1c1ccccc1 (relative stereo)	150 to 151 °C
CCOC(=O)C(=O)Nc1c([N+](=O)[O-])cc(C#N)c2ccccc12	178 °C
CC(C)CNS(=O)(=O)c1ccc2c(c1)C=C(C(=O)O)C(C(F)(F)F)O2 (centres undefined)	191 to 192 °C
COC1(c2cc(F)cc(S(=O)(=O)c3ccc4c(ccc(=O)n4C)c3)c2)CCOC(C)C1 (centres undefined)	85 to 88 °C
CC(NC(=O)c1cccnc1Oc1cccnc1)c1ccc(Cl)s1 (single isomer, unassigned; (+))	83 to 85 °C
C#CCNC(=O)N1CC(Oc2ccc(Cl)cc2)C1	120 to 122 °C
COc1ccc(Cl)cc1C1=NC(C)(C)CO1	50 to 51 °C
CC(C)(C(=O)O)c1ccc(Br)c([N+](=O)[O-])c1	167 to 171 °C
CC1(C)Cc2c(C(=O)N3CCCC3)sc(Sc3ccccc3)c2-c2oncc21	49 to 52 °C
Cc1c(CNCC(C)(C)C)n(C)c2ccc(NC(=O)c3ccc(OC[C@@H]4CCCO4)cc3)cc12	165 to 166 °C
C=CCOc1c(OC)cc([C@H]2CC[C@H](c3cc(OC)c(OC)c(OC)c3)O2)cc1S(C)(=O)=O (relative stereo)	97 to 98 °C
O=S(Cc1noc(Cc2ccccc2)n1)c1ccc(CCNC[C@H](O)COc2ccc(O)cc2)cc1 (some centres undefined)	51 to 57 °C
CCOC1(CCC(=O)O)c2cc(C)c(OC(C)=O)cc2Oc2cc(OC(C)=O)c(C)cc21	143 °C
CN(C)c1cncc(C#N)c1	104 °C
CCOC(=O)c1ccc2cc[nH]c2c1	72 to 75 °C
O=C(O)c1ccc(Sc2ccc(C(=O)O)c(C(=O)O)c2)cc1C(=O)O	202 to 203 °C
CC(=O)NCC=C1CCc2ccc3nn(C)cc3c21	200 to 202 °C
CSc1nc(N)nc(-c2ccc([N+](=O)[O-])o2)n1	179 to 181 °C
O=S1(=O)NC(C2CCCCC2)Nc2cc3c(cc21)OCCO3 (centres undefined)	196 to 200 °C
CC1CC(=O)N(c2ccc(Cl)cc2)C(=O)C1	163 to 164 °C
c1ccc2c(-n3cncn3)ccnc2c1	147 to 149 °C
CCc1nnc2c(Cl)nc3ccc(Cl)cc3n12	> 250 °C
O=C(O)COc1cccc2c1Cc1sc(S(=O)(=O)CCC(c3ccccc3)c3ccccc3)nc1-2	131 to 133 °C
O=C(Nc1ccc(CNc2nc(Cl)nc3cc(I)ccc23)cc1)c1ccc(Cl)nc1	315 °C
Cc1cc(NC(=O)OC(C)(C)C)c(C)c(C)c1O	158 to 161 °C

SMILES	melting point
O=c1[nH]ccc2cc(S(=O)(=O)N3CCCNCC3)ccc12	266 to 267 °C
CCc1c2nc(-c3cc(S(C)(=O)=O)ccc3OCC(C)C)[nH]c(=O)c2nn1Cc1cccnn1	244 to 247 °C
C=CC(=O)c1ccc([N+](=O)[O-])cc1	89 to 90 °C
CCCCCCCCCCCOCc1ccc(C(=O)O)cc1OCCCCCCCCCCC	61 to 63 °C
C[C@@H]1CCC[C@H](C)N1Cc1ccc2cc(NC(=O)c3ccc(-c4ccc(Cl)cc4)nc3)ccc2c1	229 to 230 °C
Cc1csc2ncc(C(O)CC(C)c3ccccc3)n12 (centres undefined)	135 to 136 °C
COc1cc(OCc2ccccn2)ccc1/C=C/c1cc(/C=C/c2ccc3ccn(S(C)(=O)=O)c3c2)n[nH]1	212 to 214 °C
CCc1nc(C)c(Cc2c(O)ccc3ccccc23)[nH]1	166 °C
Nc1ccccc1-c1nc2ccccc2c(=O)o1	163 to 165 °C
CN1CC(CO)C(c2ccccc2)(c2ccccc2)C1=O (centres undefined)	148 to 150 °C
O=C(O)CCCCCCCCCCCCO	77 to 78 °C
CCCn1c(COCC)nc2c(N)nc3ccc(OC4CCN(C(=O)NC(C)C)CC4)cc3c21	236 to 239 °C
O=[N+]([O-])c1cc(O)c(F)cc1F	117 to 119 °C
CC(=O)NC[C@H](O)CC(=O)NN	178 °C
CC(N)c1ccccc1O (single isomer, unassigned; (+))	83 to 83.5 °C
O=C(O)C1=Cc2cc(S(=O)(=O)NCc3ccco3)ccc2OC1C(F)(F)F (centres undefined)	170 to 173 °C
COc1c(CC(C(=O)O)C(=O)O)cccc1C(=O)c1ccc(Cl)cc1	142 °C
CN(C)C=C(C(=O)OC(C)(C)C)C(=O)c1ccccc1Cl	97 to 99 °C
O=C1c2ccccc2C(=O)N1c1ccc2ccc(F)nc2n1	245 °C
CCCCOc1ccc(NC(=O)N(C)c2cccc(-c3ccc(CCC(=O)O)cc3)c2)cc1	165 °C
C[C@@H]1[C@H](O)[C@@H](C)C=C(S(=O)(=O)c2ccccc2)[C@@H]2O[C@H]12	118 to 120 °C
CC(C)(O)CON1C(C)(C)CC(O)CC1(C)C	127 to 131 °C
CCCCOC(=N)c1sc2ccccc2c1O	185 °C
COc1ccc(CN(C)CCCOc2ccc(NC(=O)c3cccc4c(=O)c5cccc(C)c5[nH]c34)cc2)cc1OC	160 °C
